The record followed here is PubChem BioAssay AID624028 (Vanderbilt Specialized Chemistry Center, 2012).

The target in the assay is Metabotropic glutamate receptor 3 (Rattus norvegicus) (UniProt P31422). The experiment in a line: PubChem AID 624028. The conditions noted are these: TREx293 mGlu3/Galpha15, calcium fluorescence, antagonist mode.

As a reminder, the pIC50 is the IC50 on a negative log10 scale, so that one unit is a factor of ten.

SMILES strings stand for the structures. pIC50: −log10 of the molar value.

Chain of Metabotropic glutamate receptor 3 (Rattus norvegicus) (P31422 whole entry, looked up): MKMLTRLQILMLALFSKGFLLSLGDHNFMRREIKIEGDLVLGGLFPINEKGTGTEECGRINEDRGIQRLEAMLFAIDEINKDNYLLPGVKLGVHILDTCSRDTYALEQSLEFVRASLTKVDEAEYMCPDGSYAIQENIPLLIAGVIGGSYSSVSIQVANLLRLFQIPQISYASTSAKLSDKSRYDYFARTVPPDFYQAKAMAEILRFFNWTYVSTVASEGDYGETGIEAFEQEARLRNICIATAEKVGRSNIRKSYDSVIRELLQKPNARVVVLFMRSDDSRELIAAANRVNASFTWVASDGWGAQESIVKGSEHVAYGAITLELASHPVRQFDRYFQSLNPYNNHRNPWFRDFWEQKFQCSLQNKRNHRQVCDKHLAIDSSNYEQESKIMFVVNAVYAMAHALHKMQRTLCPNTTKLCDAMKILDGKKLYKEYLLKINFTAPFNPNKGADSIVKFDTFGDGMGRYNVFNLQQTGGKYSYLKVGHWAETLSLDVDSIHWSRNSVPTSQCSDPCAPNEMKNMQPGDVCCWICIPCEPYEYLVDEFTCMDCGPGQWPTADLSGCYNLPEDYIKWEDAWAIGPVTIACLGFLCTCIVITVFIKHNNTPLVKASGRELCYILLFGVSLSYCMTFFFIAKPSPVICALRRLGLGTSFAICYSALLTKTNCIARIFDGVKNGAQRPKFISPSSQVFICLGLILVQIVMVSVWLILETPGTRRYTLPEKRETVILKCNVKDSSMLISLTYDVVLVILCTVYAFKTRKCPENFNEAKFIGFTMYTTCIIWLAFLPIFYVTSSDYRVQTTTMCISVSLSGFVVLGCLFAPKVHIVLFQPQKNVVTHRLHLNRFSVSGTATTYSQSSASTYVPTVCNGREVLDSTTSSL

For `COc1ccc(C#Cc2ccc(C(=O)N3CCC[C@@H](CO)C3)cc2)cc1`, the pIC50 is 6.19.
